Measurements taken from EP0670721B1, “DRUG FOR TREATMENT AND PROPHYLAXIS OF BONE AND JOINT DISEASES” (Fricker, Christian, priority 1993, dated 1995).

Test: Oral treatment of bone and joint diseases with raised internal pressure (own controlled trials)
Type: in vivo, Menschen, Hund, Pferd
Details: osteoarthrosis (human and veterinary), podotrochlosis of the horse
Text: Erfindungsgemäß konnte festgestellt werden, daß bei degenerativen Gelenkserkrankungen in den Epiphysen bei am Gelenk beteiligten Knochen ein pathologisch erhöhter Innendruck vorliegt. Analog zur Pathophysiologie des Kompartmentsyndroms wird der intraossäre Druckanstieg durch eine Anreicherung von osmotisch aktiven Substanzen in Intestitium verursacht. In Anlehnung an die vorgestellte Pathophysiologie kann somit erstmals eine kausale Therapie für degenerative Gelenkserkrankungen bereitgestellt werden. Benzopyrone und Dobesilat-calcium vermögen durch Stabilisierung der Kapillarwände einerseits und durch Proteinresorption andererseits den Druck im erkrankten Kompartment abzubauen. Der Druckabbau ermöglicht in der Folge eine Normalisierung der Mikrozirkulation und somit eine Gesundung der betroffenen Gewebe. Wie eigene, kontrollierte Versuche zeigen, eignen sich Benzopyrone wie auch Dobesilat-Calcium zur kausalen Therapie dieser auf innerem Überdruck in Knochen und Gelenken beruhenden Erkrankungen. Dies trifft insbesondere in der Human- und Veterinärmedizin für den Problemkreis der Osteoarthrose und in der Veterinärmedizin für die Podotrochlose des Pferdes zu.
Das 5,6-α-Benzopyron wurde in der Tagesdosis von: • 1 - 4 mg/kg KGW beim Menschen, • 2 - 4 mg/kg KGW beim Hund und • 0,5 - 1 mg/kg KGW beim Pferd peroral verabreicht. […]

With O=S(=O)(O)c1cc(O)ccc1O [Dobesilat-Calcium] the “Eignung zur kausalen Therapie der auf innerem Überdruck in Knochen und Gelenken beruhenden Erkrankungen” value was “eignen sich”.
